Key:
MRSA = format: cell-based, Methicillin-resistant Staphylococcus aureus; conditions: 2 h, pH 7
Experimental: (§1) Veterinary clinical isolates, including Salmonella typhimurium, multi-drug resistant Escherichia coli, methicillin-resistant Staphylococcus aureus (MRSA), and methicillin-resistant Staphylococcus pseudointermedius (MRSP), were kindly provided by Dr. H. Cai (Department of Pathobiology, University of Guelph, ON, Canada). An antibiogram for these strains is available in the supplementary text (Table S1). Gram-negative strains were cultured in Luria−Bertani (LB) broth. Gram-positive strains were cultured in Tryptic soy broth (TSB). Both cultures were grown under aerobic conditions at 37 °C.
(§2) The minimum bactericidal concentration (MBC) of SynPG-1 against the tested pathogens was identified through a broth macrodilution antimicrobial assay as previously described, with some modification. […] The buffer volume was adjusted to accommodate the addition of SynPG-1 and PG-1 so that the final solution volume was 0.5 mL for each tested concentration. Final peptide concentrations ranged from 0.1 µg/mL to 8 µg/mL. PG-1 at the known MBC (2 µg/mL E. coli; 4 µg/mL S. typhimurium; 0.5 µg/mL MRSP; 0.5 µg/mL MRSA) was considered the in-house positive control, while the suspension containing no peptide was considered the negative control. Experimental and control tubes were incubated for 2 h at 37 °C without shaking to allow for bactericidal action to occur. […] Colony numbers from each plate were recorded. […]

MRSP = format: cell-based, Methicillin-resistant Staphylococcus pseudointermedius; conditions: 2 h, pH 7
Experimental: as §1, §2

MRSA biofilm = assay: Biofilm inhibition assay, crystal violet; format: cell-based, Methicillin-resistant Staphylococcus aureus
Experimental: Plates were placed in a static incubator at 37 °C for 48 h; the time required for untreated wells to form biofilm. After incubation, treated media was removed and wells were rinsed with 155 µL of PBS to remove planktonic cells. After sufficient air drying of wells, 150 µL of 0.1% Crystal violet stain was added to each well and incubated at room temperature for 30 min, after which, dye was removed and wells were rinsed again with 155 µL of PBS. After sufficient drying of wells, 150 µL of 70% ethanol solution was added to each well and incubated at room temperature for 30 min. After 30 min, 100 µL of each well was added to a new 96-well plate and absorbance was measured at an OD of 590 nm.

[1] = tested on: pre-formed S. typhimurium biofilm; assay: Pre-formed biofilm destruction assay, crystal violet; format: cell-based, Salmonella typhimurium; conditions: 64 µg/mL, 3 h treatment, crystal violet
Experimental: To test the destruction of preformed biofilms, in a 96-well plate, 15 µL of overnight culture, of either E. coli, S. typhimurium, or MRSA, was added to 150 µL of minimal salt media (40 mM […]; 22 mM KH2PO4; […] NH4CL; 740 mM NaCl; 2 mM MgSO4; 0.1 mM CaCl2; 22 mM supplemented with D-Glucose) in each well. Plates were placed in a static incubator at 37 °C for 48 h; the time required for untreated wells to form biofilm. After formation, minimal salt media was removed and wells were treated with 155 µL of minimal salt media containing PG-1 or SynPG-1. […] Plates were placed in a static incubator at 37 °C for 3 h. After 3 h, treated media was removed and wells were rinsed with 155 µL of PBS to remove planktonic cells. After sufficient drying of wells, 150 µL of 0.1% crystal violet stain was added to each well and incubated at room temperature for 30 min, after which dye was removed and wells were rinsed again with 155 µL of PBS. After sufficient drying of wells, 150 µL of 70% ethanol solution was added to each well and incubated at room temperature for 30 min. After 30 min, 100 µL of each well was added to a new 96-well plate and absorbance was measured at an OD of 590 nm.

IPEC-J2 cells = assay: In vitro cell migration, transwell assay; format: cell-based, porcine; conditions: transwell 8-micron, serum-free DMEM F-12, 5 to 20 µg/mL, 16 h, Hoechst 33342 count; SynPG-1 not significant at higher concentrations
Experimental: A cell line, established from intestinal porcine enterocytes, isolated from the jejunum of a neonatal unsuckled piglet (IPEC-J2 cells, DSMZ), was grown in monolayer culture in Dulbecco’s modified Eagle’s medium (high glucose), supplemented with 10% fetal bovine serum (FBS) from Invitrogen, 100 IU/mL penicillin, and 100 µg/mL streptomycin. Cultures were maintained in a 5% CO2 humidified atmosphere at 37 °C and passaged every 2–3 days, with detachment via the Trypsin-EDTA solution (Sigma).
To evaluate migration of IPEC-J2 cells, 8-micron pore-sized cell culture transwell inserts were used (Millipore Inc, Temecula, CA, USA). A total of 1 × 10^5 cells were plated in the upper inserts of the transwell and placed within 24-well plates, containing serum-free DMEM F-12 in the absence and presence of SynPG-1 or PG-1, at concentrations ranging from 5 µg/mL to 20 µg/mL. After incubation for 16 h, the cells were fixed with 4% (w/v) paraformaldehyde. […] Migration was quantified by cell enumeration through Hoechst 33342 staining of cell nuclei (Thermo Fisher Scientific, Mississauga, ON, Canada). The results are represented as the relative fold increase in migrated cells when compared to the baseline migration of IPEC-J2 cells in serum-free media after 16 h.

[2] = 25% porcine intestinal fluid (pH 6.5) in PBS, 1 mg/mL peptide, 1 h 37 °C with shaking; residual activity vs E. coli at 20 µg/mL, colony count; three independent experiments
Experimental: Porcine digestive fluids were collected, as previously described by Wang et al. [44]. […] The gastrointestinal tract was kept at 4 °C during dissection, and collection of contents from the stomach and upper small intestine (duodenum and jejunum) was conducted within 5 h of sacrifice. Contents were centrifuged at 10,000 rpm (9600× g) for 10 min at 4 °C, and supernatant fluid was collected and stored at −80 °C until its use in the stability experiment. The pH of the collected supernatants were 3.5 and 6.5 for gastric fluid and duodenum fluid, respectively.
Procedures similar to those used by Egger et al. [45] were used for this experiment. […] Suspension containing no peptide was considered the negative control. After incubation, 10 µL of the incubated solutions was added for a total volume of 0.5 mL, consisting of 20 µL of mid-logarithmic phase E. coli cells, diluted to a concentration of about 1 × 10^5 CFU/mL, and 470 µL of 20 mM sodium phosphate buffer (pH 7). […] Stability in porcine digestive fluid was evaluated as the relative colony growth on plates from bacterial grown with digestive fluid and peptide treatments, in comparison to plates grown from bacteria grown with digestive fluid alone.
Stability was evaluated by comparing the mean growth of colonies on plates treated with peptides incubated in digestive fluids to colonies grown when treated without peptide. […]

A. baumanni biofilm = conditions: tested alone or with an antibiotic; reduction in crystal violet staining only; cited from earlier work
Text: Although many have studied the antimicrobial potential of PG-1, its anti-biofilm properties have only been tested against a few species, including Streptococcus mutans and Acinetobacter baumanni. Since the composition of the extracellular polymeric substance (EPS) of a biofilm can vary widely from species to species, further investigation into the PG-1′s spectrum of antibiofilm activity is necessary. To do so, we evaluated the effect of PG-1 and SynPG-1 on the disruption and formation of biofilms from three pathogenic MDR bacteria and measured the remaining viable pathogens. ...

## CC(C)C[C@H](NC(=O)[C@H](CCCNC(=N)N)NC(=O)CNC(=O)CNC(=O)[C@@H](N)CCCNC(=N)N)C(=O)N[C@H]1CSSC[C@@H](C(=O)N[C@H](C(=O)NCC(=O)N[C@@H](CCCNC(=N)N)C(N)=O)C(C)C)NC(=O)[C@H](C(C)C)NC(=O)[C@@H]2CSSC[C@H](NC(=O)[C@H](Cc3ccc(O)cc3)NC1=O)C(=O)N[C@@H](CCCNC(=N)N)C(=O)N[C@@H](CCCNC(=N)N)C(=O)N[C@@H](CCCNC(=N)N)C(=O)N[C@@H](Cc1ccccc1)C(=O)N2 [PG-1, Protegrin-1]
MRSA
  MBC: 0.5 (0.18) μg/mL
MRSP
  MBC: 0.5 (0.18) μg/mL
MRSA biofilm; minimal salt media, 48 h 37 °C static, crystal violet OD 590 nm, p < 0.05 vs control, concentration dependent
  Concentration at which inhibition of biofilm formation was seen: 8 µg/mL
MRSA biofilm; same concentration as SynPG-1 onset (2 µg/mL), crystal violet, 48 h
  Effect on biofilm formation at the concentration where SynPG-1 began to reduce it: significant promotion of biofilm formation
[1]
  Effect on pre-formed biofilm at 64 µg/mL: did not demonstrate a significant reduction
IPEC-J2 cells
  Concentration at which cell migration increased significantly: 20 µg/mL
[2]
  Antimicrobial activity after incubation in 25% porcine intestinal fluid: mean % growth of control increased for SynPG-1 but not PG-1
A. baumanni biofilm
  Antibiofilm activity: no antibiofilm activity

Source: article PMC7407491, “The Addition of a Synthetic LPS-Targeting Domain Improves Serum Stability While Maintaining Antimicrobial, Antibiofilm, and Cell Stimulating Properties of an Antimicrobial Peptide” (Biomolecules, 2020)
